Test results reported in ChEMBL document CHEMBL1212927, “Synthesis and structure-activity relationships of novel 8a-aza-8a-homoerythromycin A ketolides” (2010).
Converted amounts (≈) assume the structure as drawn.

Assays:
[1] = test system: Staphylococcus aureus; experiment: Antibacterial activity against inducible macrolide-lincosamide-streptogramin B-resistant Staphylococcus aureus B0538 by agar microdilution method; type: functional
[2] = test system: Staphylococcus aureus; experiment: Antibacterial activity against constitutive macrolide-lincosamide-streptogramin B-resistant Staphylococcus aureus B0330 by agar microdilution method; type: functional
[3] = test system: Staphylococcus aureus; experiment: Antibacterial activity against efflux-resistant Staphylococcus aureus B0331 by agar microdilution method; type: functional
[4] = test system: Streptococcus pneumoniae; experiment: Antibacterial activity against constitutive macrolide-lincosamide-streptogramin B-resistant Streptococcus pneumoniae B0627 by agar microdilution method; type: functional
[5] = test system: Streptococcus pneumoniae; experiment: Antibacterial activity against efflux-resistant Streptococcus pneumoniae B0326 by agar microdilution method; type: functional
[6] = test system: Streptococcus pyogenes; experiment: Antibacterial activity against inducible macrolide-lincosamide-streptogramin B-resistant Streptococcus pyogenes B0543 by agar microdilution method; type: functional
[7] = test system: Streptococcus pyogenes; experiment: Antibacterial activity against constitutive macrolide-lincosamide-streptogramin B-resistant Streptococcus pyogenes B0544 by agar microdilution method; type: functional
[8] = test system: Streptococcus pyogenes; experiment: Antibacterial activity against efflux-resistant Streptococcus pyogenes B0545 by agar microdilution method; type: functional
[9] = test system: Moraxella catarrhalis; experiment: Antibacterial activity against Moraxella catarrhalis B0324 by agar microdilution method; type: functional
[10] = test system: Haemophilus influenzae; experiment: Antibacterial activity against Haemophilus influenzae B0529 by agar microdilution method; type: functional
[11] = test system: Staphylococcus aureus; experiment: Antibacterial activity against erythromycin A-susceptible Staphylococcus aureus B0329 by agar microdilution method
[12] = test system: Streptococcus pneumoniae; experiment: Antibacterial activity against erythromycin-susceptible Streptococcus pneumoniae B0541 by agar microdilution method
[13] = test system: Streptococcus pyogenes; experiment: Antibacterial activity against erythromycin A-susceptible Streptococcus pyogenes B0542 by agar microdilution method

SMILES	MIC [1] [µg/mL]	MIC [2] [µg/mL]	MIC [3] [µg/mL]	MIC [4] [µg/mL]	MIC [5] [µg/mL]	MIC [6] [µg/mL]	MIC [7] [µg/mL]	MIC [8] [µg/mL]	MIC [9] [µg/mL]	MIC [10] [µg/mL]	MIC [11] [µg/mL]	MIC [12] [µg/mL]	MIC [13] [µg/mL]
CC[C@H]1OC(=O)[C@H](C)C(=O)[C@H](C)[C@@H](O[C@@H]2O[C@H](C)C[C@H](N(C)C)[C@H]2O)[C@](C)(OCC(O)CNCCCCc2ccccn2)C[C@@H](C)NC(=O)[C@H](C)[C@@H](O)[C@]1(C)O (some centres undefined)	4 (≈ 5.03 µM)	> 64	2 (≈ 2.52 µM)	2 (≈ 2.52 µM)	4 (≈ 5.03 µM)	0.5 (≈ 0.629 µM)	32 (≈ 40.3 µM)	1 (≈ 1.26 µM)	≤ 0.125	4 (≈ 5.03 µM)	1 (≈ 1.26 µM)	≤ 0.125	0.25 (≈ 0.314 µM)
CC[C@H]1OC(=O)[C@H](C)C(=O)[C@H](C)[C@@H](O[C@@H]2O[C@H](C)C[C@H](N(C)C)[C@H]2O)[C@](C)(OCC(O)CN2CCN(c3ccc(F)cc3)CC2)C[C@@H](C)NC(=O)[C@H](C)[C@@H](O)[C@]1(C)O (some centres undefined)	16 (≈ 19.4 µM)	> 64	16 (≈ 19.4 µM)	32 (≈ 38.8 µM)	16 (≈ 19.4 µM)	4 (≈ 4.85 µM)	> 64	4 (≈ 4.85 µM)	4 (≈ 4.85 µM)	32 (≈ 38.8 µM)	4 (≈ 4.85 µM)	0.5 (≈ 0.606 µM)	≤ 0.125
CC[C@H]1OC(=O)[C@H](C)C(=O)[C@H](C)[C@@H](O[C@@H]2O[C@H](C)C[C@H](N(C)C)[C@H]2O)[C@](C)(OCC(O)CN2CCN(c3ccc([N+](=O)[O-])cc3)CC2)C[C@@H](C)NC(=O)[C@H](C)[C@@H](O)[C@]1(C)O (some centres undefined)	2 (≈ 2.35 µM)	> 64	2 (≈ 2.35 µM)	4 (≈ 4.69 µM)	2 (≈ 2.35 µM)	2 (≈ 2.35 µM)	8 (≈ 9.39 µM)	1 (≈ 1.17 µM)	0.5 (≈ 0.587 µM)	8 (≈ 9.39 µM)	1 (≈ 1.17 µM)	≤ 0.125	0.25 (≈ 0.293 µM)
CC[C@H]1OC(=O)[C@H](C)C(=O)[C@H](C)[C@@H](O[C@@H]2O[C@H](C)C[C@H](N(C)C)[C@H]2O)[C@](C)(OCC(O)CNc2cnc3ccccc3c2)C[C@@H](C)NC(=O)[C@H](C)[C@@H](O)[C@]1(C)O (some centres undefined)	2 (≈ 2.53 µM)	> 64	1 (≈ 1.27 µM)	8 (≈ 10.1 µM)	2 (≈ 2.53 µM)	4 (≈ 5.07 µM)	16 (≈ 20.3 µM)	8 (≈ 10.1 µM)	0.5 (≈ 0.634 µM)	8 (≈ 10.1 µM)	2 (≈ 2.53 µM)	≤ 0.125	≤ 0.125
CC[C@H]1OC(=O)[C@H](C)C(=O)[C@H](C)[C@@H](O[C@@H]2O[C@H](C)C[C@H](N(C)C)[C@H]2O)[C@](C)(OCC(O)CNc2ccc3ncccc3c2)C[C@@H](C)NC(=O)[C@H](C)[C@@H](O)[C@]1(C)O (some centres undefined)	2 (≈ 2.53 µM)	> 64	0.25 (≈ 0.317 µM)	2 (≈ 2.53 µM)	1 (≈ 1.27 µM)	2 (≈ 2.53 µM)	8 (≈ 10.1 µM)	4 (≈ 5.07 µM)	1 (≈ 1.27 µM)	0.5 (≈ 0.634 µM)	1 (≈ 1.27 µM)	≤ 0.125	≤ 0.125
CC[C@H]1OC(=O)[C@H](C)C(=O)[C@H](C)[C@@H](O[C@@H]2O[C@H](C)C[C@H](N(C)C)[C@H]2O)[C@](C)(OCC(O)CNCc2ccc3ncccc3c2)C[C@@H](C)NC(=O)[C@H](C)[C@@H](O)[C@]1(C)O (some centres undefined)	0.5 (≈ 0.623 µM)	> 64	0.25 (≈ 0.311 µM)	4 (≈ 4.98 µM)	1 (≈ 1.25 µM)	2 (≈ 2.49 µM)	8 (≈ 9.96 µM)	2 (≈ 2.49 µM)	1 (≈ 1.25 µM)	1 (≈ 1.25 µM)	0.5 (≈ 0.623 µM)	≤ 0.125	≤ 0.125
CC[C@H]1OC(=O)[C@H](C)C(=O)[C@H](C)[C@@H](O[C@@H]2O[C@H](C)C[C@H](N(C)C)[C@H]2O)[C@](C)(OC[C@@H](O)CNCCNc2ccc3ncccc3c2)C[C@@H](C)NC(=O)[C@H](C)[C@@H](O)[C@]1(C)O	0.25 (≈ 0.3 µM)	> 64	0.25 (≈ 0.3 µM)	≤ 0.125	≤ 0.125	≤ 0.125	1 (≈ 1.2 µM)	0.5 (≈ 0.601 µM)	≤ 0.125	0.25 (≈ 0.3 µM)	≤ 0.125	≤ 0.125	≤ 0.125
CC[C@H]1OC(=O)[C@H](C)C(=O)[C@H](C)[C@@H](O[C@@H]2O[C@H](C)C[C@H](N(C)C)[C@H]2O)[C@](C)(OC[C@H](O)CNCCNc2ccc3ncccc3c2)C[C@@H](C)NC(=O)[C@H](C)[C@@H](O)[C@]1(C)O	0.25 (≈ 0.3 µM)	> 64	0.5 (≈ 0.601 µM)	0.5 (≈ 0.601 µM)	0.25 (≈ 0.3 µM)	0.5 (≈ 0.601 µM)	4 (≈ 4.81 µM)	0.5 (≈ 0.601 µM)	0.5 (≈ 0.601 µM)	0.5 (≈ 0.601 µM)	≤ 0.125	≤ 0.125	≤ 0.125
